Experimental data taken from publication PMC6733653 (Insect biochemistry and molecular biology, 2019).
Counter-ions that a name gives are not always drawn.

Tests used:
Experiment in all cases: two-electrode voltage clamp, Xenopus oocytes, concentration-response
Format in all cases: cell-based
[1] = biological target: T1, CquiOR4 (Culex quinquefasciatus, UniProt A0A3G1T0B0)
T1 sequence (A0A3G1T0B0 1-391): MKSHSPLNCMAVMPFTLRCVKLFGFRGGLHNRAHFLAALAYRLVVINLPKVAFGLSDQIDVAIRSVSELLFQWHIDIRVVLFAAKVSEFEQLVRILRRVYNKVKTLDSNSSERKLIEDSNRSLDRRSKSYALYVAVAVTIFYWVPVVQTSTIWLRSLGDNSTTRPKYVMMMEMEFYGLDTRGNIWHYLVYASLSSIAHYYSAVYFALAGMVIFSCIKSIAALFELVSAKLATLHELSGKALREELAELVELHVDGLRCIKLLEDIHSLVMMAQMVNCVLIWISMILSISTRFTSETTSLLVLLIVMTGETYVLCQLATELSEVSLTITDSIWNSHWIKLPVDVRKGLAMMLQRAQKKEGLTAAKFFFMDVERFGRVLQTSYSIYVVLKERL

[2] = biological target: T2, AaegOR15 (Aedes aegypti, UniProt A0A6B9QIR2)
T2 sequence (A0A6B9QIR2 1-390): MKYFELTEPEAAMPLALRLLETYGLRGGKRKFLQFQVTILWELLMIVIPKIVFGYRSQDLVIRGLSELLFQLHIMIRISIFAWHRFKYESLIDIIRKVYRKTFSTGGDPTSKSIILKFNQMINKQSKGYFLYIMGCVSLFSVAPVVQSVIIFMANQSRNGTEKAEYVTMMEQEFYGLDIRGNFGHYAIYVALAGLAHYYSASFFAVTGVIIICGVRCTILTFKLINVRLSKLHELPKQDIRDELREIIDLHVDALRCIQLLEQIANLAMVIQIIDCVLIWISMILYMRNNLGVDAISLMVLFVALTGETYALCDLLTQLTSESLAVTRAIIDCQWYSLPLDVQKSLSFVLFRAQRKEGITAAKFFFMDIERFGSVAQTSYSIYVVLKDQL
T2 sequence (Q178U6 1-478 partner): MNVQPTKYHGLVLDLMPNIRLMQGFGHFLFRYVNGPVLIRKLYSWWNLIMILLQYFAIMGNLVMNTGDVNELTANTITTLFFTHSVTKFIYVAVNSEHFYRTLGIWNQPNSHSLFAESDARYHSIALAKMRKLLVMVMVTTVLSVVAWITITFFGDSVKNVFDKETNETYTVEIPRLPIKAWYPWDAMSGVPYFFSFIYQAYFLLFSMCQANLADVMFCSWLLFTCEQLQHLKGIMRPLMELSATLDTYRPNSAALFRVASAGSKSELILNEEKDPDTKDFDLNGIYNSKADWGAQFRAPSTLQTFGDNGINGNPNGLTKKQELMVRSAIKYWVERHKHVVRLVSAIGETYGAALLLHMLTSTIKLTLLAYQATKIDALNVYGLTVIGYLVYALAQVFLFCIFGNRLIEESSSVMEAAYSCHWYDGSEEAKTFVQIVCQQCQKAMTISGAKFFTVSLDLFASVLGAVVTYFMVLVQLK

[3] = biological target: T1, CquiOR4; remark: listed apart in the source
[4] = biological target: T3, CquiOR5 (Culex quinquefasciatus, UniProt A0A3G1T0A9)
T3 sequence (A0A3G1T0A9 1-393): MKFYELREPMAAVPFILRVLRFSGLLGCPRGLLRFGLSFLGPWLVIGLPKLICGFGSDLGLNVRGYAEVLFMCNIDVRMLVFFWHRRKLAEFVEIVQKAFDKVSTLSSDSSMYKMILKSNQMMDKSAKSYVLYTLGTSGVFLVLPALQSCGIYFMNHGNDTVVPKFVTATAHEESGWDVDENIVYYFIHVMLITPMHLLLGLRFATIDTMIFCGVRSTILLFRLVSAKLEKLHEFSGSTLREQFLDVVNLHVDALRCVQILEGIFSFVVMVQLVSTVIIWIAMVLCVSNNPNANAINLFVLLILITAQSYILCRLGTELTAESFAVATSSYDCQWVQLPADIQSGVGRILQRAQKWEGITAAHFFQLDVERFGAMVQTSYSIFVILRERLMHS

Structure (SMILES): OCCc1ccccc1 [2-phenylethanol]
- EC50 [1]: 28 nM

Structure (SMILES): OCc1ccccc1 [benzyl alcohol]
- two-electrode voltage clamp, Xenopus oocytes, concentration-response [2]: Concentration-dependent responses of AaegOR15·AaegOrco-expressing oocytes to four major odorants

Structure (SMILES): O=COCCc1ccccc1 [phenethyl formate]
- two-electrode voltage clamp, Xenopus oocytes, concentration-response [2]: AaegOR15/AaegOrco-expressing oocytes generated dose-dependent, robust currents when challenged with phenethyl propionate, phenethyl formate, and acetophenone

Structure (SMILES): CCC(=O)OCCc1ccccc1 [phenethyl propionate]
- two-electrode voltage clamp, Xenopus oocytes, concentration-response [2]: AaegOR15/AaegOrco-expressing oocytes generated dose-dependent, robust currents when challenged with phenethyl propionate, phenethyl formate, and acetophenone
- two-electrode voltage clamp, Xenopus oocytes, concentration-response [3]: 2-Phenylethanol, phenethyl formate, and phenethyl propionate were the best ligands for CquiOR4

Structure (SMILES): C=CC(C)(O)CCC=C(C)C (racemic) [linalool]
- EC50 [4]: 574 nM

Structure (SMILES): CC(=O)c1ccccc1 [acetophenone]
- two-electrode voltage clamp, Xenopus oocytes, concentration-response [2]: AaegOR15/AaegOrco-expressing oocytes generated dose-dependent, robust currents when challenged with phenethyl propionate, phenethyl formate, and acetophenone
